Drawing on patent US20260256925A1, “INDAZOLE DERIVATIVES AS ESTROGEN RECEPTOR DEGRADERS” (REGENTS OF THE UNIVERSITY OF MICHIGAN, priority 2022, published 2026), this text covers IC50 and DC50 for ten compounds.

Where only a bound is given, the exact number is not on record here.

The nature of test [1]: Cell growth assay, WST-8 (compounds B1-B126). Particulars: 96 h; T47D cell line, WST-8, 4 days; read-out: Cell growth inhibition in T47D cell line IC50. Format: cell-based. Put shortly:
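Cells seeded at 1500/well overnight, treated one day later with compound doses for 4 days, then 10% WST-8 added for 2.5 h at 37° C in CO2. Absorbance at 450 nm, expressed relative to vehicle control over three independent repeats.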
(Tetrazolium assays rely on reduction of a dye to a coloured formazan, in cell work by metabolically active cells.)

In a further test the target is T1, ER (Homo sapiens, UniProt P03372).
T1 construct: endogenous in cells; probably T47D or MCF-7
T1 sequence (P03372 1-595): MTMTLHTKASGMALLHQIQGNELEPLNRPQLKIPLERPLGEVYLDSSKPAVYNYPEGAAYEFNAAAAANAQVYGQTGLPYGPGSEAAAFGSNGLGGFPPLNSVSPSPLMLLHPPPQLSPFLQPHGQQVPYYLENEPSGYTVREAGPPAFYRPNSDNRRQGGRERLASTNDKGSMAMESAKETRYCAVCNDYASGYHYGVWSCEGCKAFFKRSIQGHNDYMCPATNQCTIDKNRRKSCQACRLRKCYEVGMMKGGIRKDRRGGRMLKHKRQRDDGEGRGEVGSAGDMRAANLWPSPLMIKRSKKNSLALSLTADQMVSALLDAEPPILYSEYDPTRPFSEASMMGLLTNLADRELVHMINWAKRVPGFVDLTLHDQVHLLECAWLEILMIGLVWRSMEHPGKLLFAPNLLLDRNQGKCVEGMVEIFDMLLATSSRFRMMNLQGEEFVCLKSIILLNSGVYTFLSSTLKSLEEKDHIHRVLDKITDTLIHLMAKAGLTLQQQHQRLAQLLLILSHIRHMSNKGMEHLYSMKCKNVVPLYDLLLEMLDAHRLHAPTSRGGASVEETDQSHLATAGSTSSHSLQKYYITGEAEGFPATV
Put plainly: In-cell western blot analysis, relative ER percentage (compounds B1-B126). The settings on record: ER degradation, 16 hours, read-out: ICW DC50. Type of test: cell-based. Put shortly: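 Cells seeded at 40,000 or 10,000 per well overnight were treated with compound (final 0.5% DMSO) for 16 hours, then fixed with formaldehyde. ER was detected with primary antibodies and anti-rabbit-680/anti-mouse-800 secondaries on a CLX reader. Signal is expressed relative to untreated and DMSO wells set as 100%.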

As to `C[C@@H]1Cc2c(ccc3[nH]ncc23)[C@@H](c2c(F)cc(N3CC4(CN(CC(=O)N5CCN6c7ccc8c(c7OC[C@H]6C5)CN(C5CCC(=O)NC5=O)C8=O)C4)C3)cc2F)N1CC(F)F` (stereo partly drawn) [Compound B98, 3-((R)-7-(2-(6-(4-((6S,8R)-7-(2,2-difluoroethyl)-8-methyl-6,7,8,9-tetrahydro-3H-pyrazolo[4,3-f]isoquinolin-6-yl)-3,5-difluorophenyl)-2,6-diazaspiro[3.3]heptan-2-yl)acetyl)-1-oxo-1,3,5,5a,6,7,8,9-octahydro-2H-pyrazino[1′,2′:4,5][1,4]oxazino[2,3-e]isoindol-2-yl)piperidine-2,6-dione], the IC50 in test [1] was less than 1 nM. Further, the DC50 on ER is less than 10 nM.
With `C[C@@H]1Cc2c(ccc3[nH]ncc23)[C@@H](c2ccc(N3CC4(CC(CN5CCN6c7cc8c(cc7OC[C@@H]6C5)C(=O)N(C5CCC(=O)NC5=O)C8)CO4)C3)cn2)N1CC(F)(F)F` (stereo partly drawn) [Compound B97, 3-((4aS)-3-((2-(6-((6S,8R)-8-methyl-7-(2,2,2-trifluoroethyl)-6,7,8,9-tetrahydro-3H-pyrazolo[4,3-f]isoquinolin-6-yl)pyridin-3-yl)-5-oxa-2-azaspiro[3.4]octan-7-yl)methyl)-8-oxo-1,2,3,4,4a,5,8,10-octahydro-9H-pyrazino[1′,2′:4,5][1,4]oxazino[2,3-f]isoindol-9-yl)piperidine-2,6-dione], in test [1], the IC50 is less than 1 nM. Moreover, at ER, the DC50 is less than 10 nM.
The matching figures for `C[C@@H]1Cc2c(ccc3[nH]ncc23)[C@@H](c2ccc(N3CCC(CN4CCN(c5ccc6c(c5)CN(C5CCC(=O)NC5=O)C6=O)CC4)CC3)cn2)N1CC(F)(F)F` (stereo partly drawn) [Compound B63, 3-(5-(4-((1-(6-((6S,8R)-8-methyl-7-(2,2,2-trifluoroethyl)-6,7,8,9-tetrahydro-3H-pyrazolo[4,3-f]isoquinolin-6-yl)pyridin-3-yl)piperidin-4-yl)methyl)piperazin-1-yl)-1-oxoisoindolin-2-yl)piperidine-2,6-dione]: less than 1 nM and less than 10 nM.
As for `COc1cc(N2CCC3(CC2)CC(CN2CCN4c5cc6c(cc5OC[C@H]4C2)C(=O)N(C2CCC(=O)NC2=O)C6)C3)ccc1[C@@H]1c2ccc3[nH]ncc3c2C[C@@H](C)N1CC(F)F` (stereo partly drawn) [Compound B55, 3-((R)-3-((7-(4-((6S,8R)-7-(2,2-difluoroethyl)-8-methyl-6,7,8,9-tetrahydro-3H-pyrazolo[4,3-f]isoquinolin-6-yl)-3-methoxyphenyl)-7-azaspiro[3.5]nonan-2-yl)methyl)-8-oxo-1,2,3,4,4a,5,8,10-octahydro-9H-pyrazino[1′,2′:4,5][1,4]oxazino[2,3-f]isoindol-9-yl)piperidine-2,6-dione], in test [1], the IC50 lay in the range of 1 to 10 nM. For the same compound, the DC50 on ER is greater than 100 nM.
On the same counts, the results for `C[C@@H]1Cc2c(ccc3[nH]ncc23)[C@@H](c2c(F)cc(N3CC4(CCN(CC(=O)N5CCN6c7cc8c(cc7OC[C@@H]6C5)C(=O)N(C5CCC(=O)NC5=O)C8)CC4)C3)cc2F)N1CC(F)F` (stereo partly drawn) [Compound B33, 3-((S)-3-(2-(2-(4-((6S,8R)-7-(2,2-difluoroethyl)-8-methyl-6,7,8,9-tetrahydro-3H-pyrazolo[4,3-f]isoquinolin-6-yl)-3,5-difluorophenyl)-2,7-diazaspiro[3.5]nonan-7-yl)acetyl)-8-oxo-1,2,3,4,4a,5,8,10-octahydro-9H-pyrazino[1′,2′:4,5][1,4]oxazino[2,3-f]isoindol-9-yl)piperidine-2,6-dione] are less than 1 nM and less than 10 nM.
On to `C[C@@H]1Cc2c(ccc3[nH]ncc23)[C@@H](c2c(F)cc(NC3CC4(C3)CN(C(=O)CN3CCN5c6cc7c(cc6OC[C@@H]5C3)C(=O)N(C3CCC(=O)NC3=O)C7)C4)cc2F)N1CC(F)F` (stereo partly drawn) [Compound B39, 3-((S)-3-(2-(6-((4-((6S,8R)-7-(2,2-difluoroethyl)-8-methyl-6,7,8,9-tetrahydro-3H-pyrazolo[4,3-f]isoquinolin-6-yl)-3,5-difluorophenyl)amino)-2-azaspiro[3.3]heptan-2-yl)-2-oxoethyl)-8-oxo-1,2,3,4,4a,5,8,10-octahydro-9H-pyrazino[1′,2′:4,5][1,4]oxazino[2,3-f]isoindol-9-yl)piperidine-2,6-dione], for which the IC50 in test [1] was less than 1 nM. In addition, the DC50 at ER was less than 10 nM.
For the compound `C[C@@H]1Cc2c(ccc3[nH]ncc23)[C@@H](c2ccc(N3CC4(CCC(CN5CCN6c7ccc8c(c7OC[C@H]6C5)CN(C5CCC(=O)NC5=O)C8=O)CC4)C3)cn2)N1CC(F)(F)F` (stereo partly drawn) [Compound B108, 3-((R)-7-((2-(6-((6S,8R)-8-methyl-7-(2,2,2-trifluoroethyl)-6,7,8,9-tetrahydro-3H-pyrazolo[4,3-f]isoquinolin-6-yl)pyridin-3-yl)-2-azaspiro[3.5]nonan-7-yl)methyl)-1-oxo-1,3,5,5a,6,7,8,9-octahydro-2H-pyrazino[1′,2′:4,5][1,4]oxazino[2,3-e]isoindol-2-yl)piperidine-2,6-dione], the IC50 in test [1] is less than 1 nM. In addition, the DC50 on ER was less than 10 nM.
On to `C[C@@H]1Cc2c(ccc3[nH]ncc23)[C@@H](c2ccc(N3CCC4(CC3)CC(CN3CCN5c6ccc7c(c6OC[C@@H]5C3)CN(C3CCC(=O)NC3=O)C7=O)C4)cn2)N1CC(F)(F)F` (stereo partly drawn) [Compound B107, 3-((S)-7-((7-(6-((6S,8R)-8-methyl-7-(2,2,2-trifluoroethyl)-6,7,8,9-tetrahydro-3H-pyrazolo[4,3-f]isoquinolin-6-yl)pyridin-3-yl)-7-azaspiro[3.5]nonan-2-yl)methyl)-1-oxo-1,3,5,5a,6,7,8,9-octahydro-2H-pyrazino[1′,2′:4,5][1,4]oxazino[2,3-e]isoindol-2-yl)piperidine-2,6-dione], for which the IC50 in test [1] was less than 1 nM. Further, the DC50 at ER was in the range of 10 to 100 nM.
On to `C[C@@H]1Cc2c(ccc3[nH]ncc23)[C@@H](c2ccc(N3CC4(CC(CN5CCN6c7ccc8c(c7OC[C@H]6C5)CN(C5CCC(=O)NC5=O)C8=O)CO4)C3)cn2)N1CC(F)(F)F` (stereo partly drawn) [Compound B96, 3-((5aR)-7-((2-(6-((6S,8R)-8-methyl-7-(2,2,2-trifluoroethyl)-6,7,8,9-tetrahydro-3H-pyrazolo[4,3-f]isoquinolin-6-yl)pyridin-3-yl)-5-oxa-2-azaspiro[3.4]octan-7-yl)methyl)-1-oxo-1,3,5,5a,6,7,8,9-octahydro-2H-pyrazino[1′,2′:4,5][1,4]oxazino[2,3-e]isoindol-2-yl)piperidine-2,6-dione], for which the IC50 in test [1] was less than 1 nM. Also, the DC50 on ER is less than 10 nM.
For `C[C@@H]1Cc2c(ccc3[nH]ncc23)[C@@H](c2c(F)cc(N3CC4(CN(C(=O)CN5CCN6c7cc8c(cc7OC[C@@H]6C5)C(=O)N(C5CCC(=O)NC5=O)C8)C4)C3)cc2F)N1CC(F)F` (stereo partly drawn) [Compound B34, 3-((S)-3-(2-(6-(4-((6S,8R)-7-(2,2-difluoroethyl)-8-methyl-6,7,8,9-tetrahydro-3H-pyrazolo[4,3-f]isoquinolin-6-yl)-3,5-difluorophenyl)-2,6-diazaspiro[3.3]heptan-2-yl)-2-oxoethyl)-8-oxo-1,2,3,4,4a,5,8,10-octahydro-9H-pyrazino[1′,2′:4,5][1,4]oxazino[2,3-f]isoindol-9-yl)piperidine-2,6-dione], the IC50 in test [1] was less than 1 nM. The 50% degradation concentration (DC50) on ER is less than 10 nM.

In general, IC50 refers to the concentration that inhibits the measured activity by half. A word on the DC50: it is the midpoint of the concentration-degradation curve.
